The data set is described as follows: Human HepG2 cell viability assay in 384 well format. Format: toxicity, cell-based. Set-up: dose 125 nL, time 70.5 hour; cytotoxicity at 70.5 h: concentration not given beside the values. As to conditions: HepG2 cells, read-out: Inhibition.
`COc1cc(N2C[C@H]3OCC[C@H]3[C@H](C(=O)NC3CC3)C2)ncn1`: the cytotoxicity at 70.5 h was -4.39%. Consider `Cc1ccc(N2CCCc3sc(C(=O)NCc4cccnc4)nc32)nn1`, for which the cytotoxicity at 70.5 h is -10.4%. The result for `CN(C)c1nccc(N2CCO[C@H]3CN(CC4CCOCC4)C[C@H]32)n1` reads -7.1%. As for `CCn1ncc2c1C(COCC1CC1)CN(C(=O)c1cccs1)C2` (configuration not stated), the figure is 6.27%; as for `Cc1oncc1C(=O)N1CCC2(CCN(Cc3ccccn3)C2=O)C1` (configuration not stated), -0.113%; as for `CCC(C)NC(=O)N1CCCn2cnc(CO)c2C1` (configuration not stated), -7.63%.

On to `CN1C(=O)C[C@@H]2[C@@H]1CCN2S(=O)(=O)Cc1ccccc1`, for which the cytotoxicity at 70.5 h was -3.44%. Regarding `CCN1Cc2c(C(=O)NCC3CC3)ncn2-c2ccccc2S1(=O)=O`, the cytotoxicity at 70.5 h is -9.23%. For `COCCN1C[C@H]2[C@@H](C1)N(Cc1ccc(C)o1)CC[C@H]2OC`, the cytotoxicity at 70.5 h was -5.94%.

For `CCN1CC2(CC1=O)CN(C(C)=O)CCN(C(=O)c1ccco1)C2` (configuration not stated), the cytotoxicity at 70.5 h is -9.45%. Take `Cc1csc(CN2CC[C@H]3C[C@H](c4nnc(C)[nH]4)O[C@@H]3C2)n1`: the cytotoxicity at 70.5 h worked out at 20.1%. The result for `CCOCC1CN(Cc2ccoc2)Cc2ncn(CC3CC3)c21` (configuration not stated) reads 5.39%. As for `COCCO[C@H]1CCN(C(=O)c2ccno2)[C@H]1Cc1cnn(C)c1`, the cytotoxicity at 70.5 h was -0.314%.

`CCN1CC2(CC1=O)CN(Cc1cccs1)CCN(C(=O)C(C)C)C2` (configuration not stated): the cytotoxicity at 70.5 h was 2.16%. Take `COCCN1C[C@@H]2CN(c3ncccn3)C[C@@H]2C1=O`: the cytotoxicity at 70.5 h was -7.68%. The result for `CNC(=O)N1CC[C@H]2N(C)CC[C@@]2(C(=O)Nc2ccccc2)CC1` reads -4.01%; that for `O=C(C1CCOCC1)N1CCO[C@H]2[C@@H](OCc3ccncc3)CC[C@@H]21`, -4.02%. The result for `Cc1noc([C@H]2COC[C@H]3CN(C(=O)Cc4ccc(F)cc4)C[C@H]32)n1` reads -2.96%. The result for `CCC1=N[C@@]2(CC[C@@H]3CN(C(=O)Nc4ccc(F)cc4)C[C@@H]32)C(=O)N1` reads 0.571%. As to `CCN1CCC2(CC1)CC(Nc1ncccn1)CO2` (configuration not stated), the cytotoxicity at 70.5 h is -1.36%. As for `O=C(c1ccncc1F)N1CCN(CC2CC2)c2ncccc2C1`, the figure is 24.5%; as for `COCCN1CCN(C(=O)c2ccncc2F)Cc2cccnc21`, -12.3%; as for `CC(C)CS(=O)(=O)N1C[C@H]2C[C@H](C(=O)NCc3ccccc3)[C@@H](C1)O2`, -7.71%. The result for `CCN1C[C@H]2CCN(C(=O)NC3CCCC3)CC[C@H]2S1(=O)=O` reads 12.8%; that for `Cc1nc(N2CCCC2)nc2c1CCN(C(=O)C1CCCC1)CC2`, -9.52%. Regarding `Cc1cccc(C2N3CCC4(CC3)c3[nH]c5ccccc5c3CCN24)n1` (configuration not stated), the cytotoxicity at 70.5 h came to 5.13%. The result for `Fc1ccc2[nH]c3c(c2c1)CCN1C(c2ccncc2)N2CCC31CC2` (configuration not stated) reads 22.4%.

In the case of `CC1CCc2nn(CCNC(=O)Cc3ccccc3F)c(=O)cc2C1` (configuration not stated), the cytotoxicity at 70.5 h amounted to 0.912%.

In the case of `CC1CCc2nn(CCNC(=O)Cc3ccc(F)cc3)c(=O)cc2C1` (configuration not stated), the cytotoxicity at 70.5 h is -4.91%. For the molecule `Cn1ccnc1CN1CCCC(CCCc2ccccn2)(C(N)=O)C1` (configuration not stated), the cytotoxicity at 70.5 h was -4.1%. Turning to `Fc1ccccc1Oc1nccnc1C1CCN(C2CCOCC2)CC1`, the cytotoxicity at 70.5 h was 30.2%. As for `CC(C)CC(=O)NC[C@H]1CC[C@H](C(c2ccccn2)N(C)C)CC1` (some centres not stated), the figure is -3.76%; as for `CN(C)C(c1ccccn1)[C@H]1CC[C@H](CNC(=O)C2CCCC2)CC1` (some centres not stated), -2.3%. As for `Cc1c(C(=O)N(C)CC(F)(F)F)nnn1-c1ccc(F)cc1`, the figure is 0.0353%; as for `Cc1cnc2[nH]c(C(F)(F)F)c(CN3CCOCC3)c2c1`, 21.8%. As to `CCn1cc(C(=O)NCCc2nc(-c3ccc(C)cc3)n[nH]2)c(C)n1`, the cytotoxicity at 70.5 h was -4.26%.

For the molecule `CCn1ncc(C(=O)NCCc2nc(-c3ccc(C)cc3)n[nH]2)c1C`, the cytotoxicity at 70.5 h was -0.645%. As for `Cc1nc(C)n(CCNC(=O)C2(C)CC(c3ccccc3)=NO2)n1` (configuration not stated), the cytotoxicity at 70.5 h came to 1.37%. In the case of `Cn1ccc(C2CCCCCN2C(=O)c2cccnc2)n1` (configuration not stated), the cytotoxicity at 70.5 h was -2.46%. On to `Cc1ccc2nc(C)cc(NCCNS(=O)(=O)c3cccnc3)c2c1`, for which the cytotoxicity at 70.5 h was -2.02%. Consider `COc1cc2c(cc1CN1CCc3sccc3C1C)OCCO2` (configuration not stated), for which the cytotoxicity at 70.5 h turned out to be 2.33%. As for `CC(C)CC(=O)N1C[C@H]2CCCN(S(=O)(=O)c3ccc(Cl)s3)[C@H]2C1`, the cytotoxicity at 70.5 h was found to be 14.6%. The result for `CNc1cccc(C2CN(C(=O)c3c[nH]cn3)CCO2)n1` (configuration not stated) reads 5.85%. The result for `Cc1noc(C)c1CCC(=O)NCC1(O)CCCN(c2ccccn2)C1` (configuration not stated) reads -5.72%; that for `CC(=O)N1CCC(c2cncc(N3CCCC(O)C3)n2)CC1` (configuration not stated), -4.12%. As for `Cc1nccnc1C1CCN(C2CCCC2O)CC1` (configuration not stated), the figure is -0.726%; as for `O=C(N[C@H]1CN[C@H]2CCCO[C@H]21)c1ccno1`, -4.14%. As for `O=C(N[C@H]1CN[C@H]2CCCO[C@H]21)c1cscn1`, the cytotoxicity at 70.5 h is -4.74%.

Turning to `Cc1nc(-c2ccc(CO)cc2)cc(C2CCNCC2)n1`, the cytotoxicity at 70.5 h was -2.27%. Regarding `CN(C)CC1CN(C(=O)NCc2ccccc2)Cc2nccn2C1` (configuration not stated), the cytotoxicity at 70.5 h was -5.97%. Regarding `O=C1COC2(CCN(Cc3cccs3)CC2)CN1c1ccccc1`, the cytotoxicity at 70.5 h was -4.47%. As for `CN(C)c1nccc(N2CCO[C@H]3CN(Cc4ccsc4)C[C@H]32)n1`, the figure is -6%; as for `O=C(C1CCOCC1)N1C[C@@H]2C[C@@H](c3nc(C4CC4)cs3)O[C@@H]2C1`, 8.69%; as for `O=C1COC2(CCN(CC3CC3)CC2)CN1c1ccccc1`, -9.15%. In the case of `Cc1ccc(CN2CCc3c(C(=O)N(C)C)nn(C)c3C2)s1`, the cytotoxicity at 70.5 h was -5.06%. For the molecule `CS(=O)(=O)N1CCC2(CN(C(=O)c3cccnc3)C2)C1`, the cytotoxicity at 70.5 h is -2.66%. As to `c1ccc(-c2ccc3nc(C4CCN(CC5CC5)CC4)nn3c2)cc1`, the cytotoxicity at 70.5 h was -6.34%. Turning to `O=C1C[C@H]2[C@@H](CCN2C(=O)c2ccccc2)N1CCN1CCOCC1`, the cytotoxicity at 70.5 h was -5.41%. Take `COCc1nn(C(C)C)c2c1CCN(Cc1ccc(C)s1)C2`: the cytotoxicity at 70.5 h was -8.69%.

As for `O=C(C1CCOCC1)N1C[C@@H]2[C@@H](C1)OCC(=O)N2Cc1ccncc1`, the cytotoxicity at 70.5 h is -5.97%. Consider `O=C(NC[C@H]1OC[C@@H]2CCN(Cc3ccco3)C[C@@H]21)c1ccsc1`, for which the cytotoxicity at 70.5 h was -5.61%. For the molecule `Cc1ncnc2c1CCN(Cc1ccc3c(c1)OCO3)CC2`, the cytotoxicity at 70.5 h is -3.06%. The result for `COc1ccc(CN2CCOC3(CCCN(c4nnc(C)o4)C3)C2)cc1` (configuration not stated) reads -2.27%.

As to `CS(=O)(=O)N1CCOCC2(CCN(C(=O)c3cccnc3)CC2)C1`, the cytotoxicity at 70.5 h is -7.84%. For the molecule `CN(C)C(=O)N1C[C@@H]2CCCO[C@@H]2[C@H](N(C)Cc2ccco2)C1`, the cytotoxicity at 70.5 h is -11.5%.

With `CCOCC1CN(Cc2ccoc2)Cc2nn(CC3CC3)cc21` (configuration not stated), the cytotoxicity at 70.5 h amounted to 5.44%.

Consider `CCN1CC2(CC1=O)CN(Cc1cnn(C)c1)CCN(C(C)=O)C2` (configuration not stated), for which the cytotoxicity at 70.5 h is -0.943%. For `O=C1COC2(CCN(Cc3ccc(F)cc3)CC2)CN1`, the cytotoxicity at 70.5 h was determined as 3.53%. The result for `CCN1CCC(c2nc3ccc(NC(C)C)cn3n2)CC1` reads -0.678%.

As for `CCn1nnc2c1C(COC)CN(Cc1cccs1)C2` (configuration not stated), the cytotoxicity at 70.5 h was 1.81%. For the molecule `CCCS(=O)(=O)N1CCC2(CC1)CN(c1ccccn1)CCO2`, the cytotoxicity at 70.5 h is 23.8%. As for `O=C(C[C@@H]1COC[C@H]2CN(Cc3ccc(F)cc3)C[C@@H]12)N1CCOCC1`, the figure is 21.2%; as for `COc1ccc(CN2CC[C@@H](O)[C@@H]2Cc2ccccc2)cc1`, 38.7%. The result for `O=C(N1CCOCC1)[C@@]12CCO[C@@H]1CCN(CC1CCCCC1)C2` reads 27.8%; that for `Cc1ccc(CN2CCC3(CC2)OC(C(=O)N(C)C)c2ccccc23)o1` (configuration not stated), -13.3%; that for `O=C(c1ccco1)N1CCOCC2(CCN(C3CCOCC3)C2)C1` (configuration not stated), -8.45%. The result for `O=C(N1CCOCC1)[C@@]12CCO[C@@H]1CCN(Cc1ccccc1F)C2` reads -9.82%; that for `Cc1ccc(N2CCCC3(COCCN(c4nccs4)C3)C2)nn1` (configuration not stated), -9.95%; that for `Cc1ncsc1CN1C[C@H](C(=O)N2CCCO2)[C@@H]2CCO[C@@H]2C1`, -0.785%. On to `Cn1ccc(C(=O)NC2CCC23CCN(Cc2cccnc2)CC3)c1` (configuration not stated), for which the cytotoxicity at 70.5 h was -7.38%.

For `c1csc(CN2C[C@@H]3OCCN(CC4CCCO4)[C@@H]3C2)c1` (some centres not stated), the cytotoxicity at 70.5 h is -7.54%. As for `Cc1cccc(Cn2c3c(ccc2=O)CCN(Cc2ccoc2)CC3)n1`, the figure is -9.52%; as for `c1cncc(CO[C@H]2CC[C@H]3[C@@H]2OCCN3C2CCOCC2)c1`, -2.22%. As for `Cc1csc(CN2CCC[C@]3(C[C@H](Oc4ccccn4)CO3)C2)n1`, the figure is 16%; as for `Cc1nc(CN2CCOCC3(CCN(c4cccnc4)CC3)C2)cs1`, 2.23%; as for `COCC1c2c(cnn2C)CCN1Cc1ccc(F)cc1` (configuration not stated), -0.871%. With `Fc1cnc(N2C[C@H]3CCC[C@@]3(COc3ccccn3)C2)nc1`, the cytotoxicity at 70.5 h was -7.17%.

For `c1cncc(CO[C@H]2CO[C@@]3(CCN(Cc4ccoc4)C3)C2)c1`, the cytotoxicity at 70.5 h was -20.1%. In the case of `COCCN1C[C@@H]2[C@@H](OC)CCN(Cc3cccc(C)n3)[C@@H]2C1`, the cytotoxicity at 70.5 h was -8.62%.

Take `CO[C@H]1CCN(Cc2cnn(C)c2)[C@@H]2CN(Cc3cccnc3)C[C@H]12`: the cytotoxicity at 70.5 h was -25.8%. Regarding `OCCN(Cc1ccncc1)CC1(c2ccc(Cl)cc2)CC1`, the cytotoxicity at 70.5 h was -4.99%. As for `Fc1ccc([C@@H]2COC[C@H]2NCc2cccc(F)c2)cc1`, the figure is -3.65%.
